# Assay results from PubChem BioAssay (NCI).
#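 Each compound was tested at five concentrations against cells in 96-well plates for 48 hours. TGI is the concentration that stops growth completely.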
# Experiments:
# Assay in all cases: growth of human tumour cells (NCI), 48 h
# MDA-MB-231 breast = tested on: MDA-MB-231 breast
# SK-OV-3 ovarian = tested on: SK-OV-3 ovarian
# PC-3 prostate = tested on: PC-3 prostate
# NCI-H23 lung = tested on: NCI-H23 lung
# UACC-62 melanoma = tested on: UACC-62 melanoma
# MCF7 breast = tested on: MCF7 breast
# HS 578T breast = tested on: HS 578T breast
# SF-539 CNS = tested on: SF-539 CNS
# T-47D breast = tested on: T-47D breast
# CCRF-CEM leukemia = tested on: CCRF-CEM leukemia
# HCC-2998 colon = tested on: HCC-2998 colon
# SK-MEL-28 melanoma = tested on: SK-MEL-28 melanoma
# HOP-62 NSCLC = tested on: HOP-62 NSCLC
# TK-10 renal = tested on: TK-10 renal
# A498 renal = tested on: A498 renal
# OVCAR-5 ovarian = tested on: OVCAR-5 ovarian
# RPMI-8226 leukemia = tested on: RPMI-8226 leukemia
# CAKI-1 renal = tested on: CAKI-1 renal
# UACC-257 melanoma = tested on: UACC-257 melanoma
# HOP-92 NSCLC = tested on: HOP-92 NSCLC
# U251 CNS = tested on: U251 CNS
# SNB-19 CNS = tested on: SNB-19 CNS
# MALME-3M melanoma = tested on: MALME-3M melanoma
# NCI/ADR-RES ovarian = tested on: NCI/ADR-RES ovarian
# ACHN renal = tested on: ACHN renal
# MDA-MB-435 = tested on: MDA-MB-435
# 786-0 renal = tested on: 786-0 renal
# COLO 205 colon = tested on: COLO 205 colon
# A549 NSCLC = tested on: A549 NSCLC
# SN12C renal = tested on: SN12C renal
# SW-620 colon = tested on: SW-620 colon
# OVCAR-4 ovarian = tested on: OVCAR-4 ovarian
# HT29 colon = tested on: HT29 colon
# SF-295 CNS = tested on: SF-295 CNS
# NCI-H522 lung = tested on: NCI-H522 lung
# IGROV1 ovarian = tested on: IGROV1 ovarian
# M14 melanoma = tested on: M14 melanoma
# SK-MEL-2 melanoma = tested on: SK-MEL-2 melanoma
# MOLT-4 leukemia = tested on: MOLT-4 leukemia
# HL-60(TB) leukemia = tested on: HL-60(TB) leukemia
# NCI-H226 lung = tested on: NCI-H226 lung
# SK-MEL-5 melanoma = tested on: SK-MEL-5 melanoma
# EKVX NSCLC = tested on: EKVX NSCLC
# NCI-H460 lung = tested on: NCI-H460 lung
# SR leukemia = tested on: SR leukemia
# UO-31 renal = tested on: UO-31 renal
# OVCAR-8 ovarian = tested on: OVCAR-8 ovarian
# BT-549 breast = tested on: BT-549 breast
# HCT-15 colon = tested on: HCT-15 colon
# MDA-N = tested on: MDA-N
# KM12 colon = tested on: KM12 colon
# OVCAR-3 ovarian = tested on: OVCAR-3 ovarian
# SNB-75 CNS = tested on: SNB-75 CNS
# K-562 leukemia = tested on: K-562 leukemia
# DU-145 prostate = tested on: DU-145 prostate
# SF-268 CNS = tested on: SF-268 CNS
# HCT-116 colon = tested on: HCT-116 colon
# LOX IMVI melanoma = tested on: LOX IMVI melanoma
# RXF 393 renal = tested on: RXF 393 renal
smiles,measurement,setting,value
CC(=O)Nc1ccc2[nH]c(-c3cccc(F)c3)cc(=O)c2c1,TGI,MDA-MB-231 breast,> 59.6 µM
same,TGI,SK-OV-3 ovarian,> 100 µM
same,TGI,PC-3 prostate,> 100 µM
same,TGI,NCI-H23 lung,> 56.8 µM
same,TGI,UACC-62 melanoma,> 31 µM
same,TGI,MCF7 breast,> 100 µM
same,TGI,HS 578T breast,> 28.2 µM
same,TGI,SF-539 CNS,6.92 µM
same,TGI,T-47D breast,> 100 µM
same,TGI,CCRF-CEM leukemia,> 100 µM
same,TGI,HCC-2998 colon,23 µM
same,TGI,SK-MEL-28 melanoma,> 100 µM
same,TGI,HOP-62 NSCLC,> 48.4 µM
same,TGI,TK-10 renal,> 100 µM
same,TGI,A498 renal,> 59.8 µM
same,TGI,OVCAR-5 ovarian,> 100 µM
same,TGI,RPMI-8226 leukemia,> 59.8 µM
same,TGI,CAKI-1 renal,> 100 µM
same,TGI,UACC-257 melanoma,> 100 µM
same,TGI,HOP-92 NSCLC,> 55.1 µM
same,TGI,U251 CNS,16.3 µM
same,TGI,SNB-19 CNS,> 100 µM
same,TGI,MALME-3M melanoma,> 100 µM
same,TGI,NCI/ADR-RES ovarian,21.2 µM
same,TGI,ACHN renal,> 100 µM
same,TGI,MDA-MB-435,3.85 µM
same,TGI,786-0 renal,> 100 µM
same,TGI,COLO 205 colon,> 65.5 µM
same,TGI,A549 NSCLC,> 100 µM
same,TGI,SN12C renal,> 100 µM
same,TGI,SW-620 colon,> 100 µM
same,TGI,OVCAR-4 ovarian,> 29.5 µM
same,TGI,HT29 colon,> 100 µM
same,TGI,SF-295 CNS,> 77.2 µM
same,TGI,NCI-H522 lung,20.2 µM
same,TGI,IGROV1 ovarian,> 100 µM
same,TGI,M14 melanoma,> 100 µM
same,TGI,MOLT-4 leukemia,> 100 µM
same,TGI,HL-60(TB) leukemia,80.7 µM
same,TGI,NCI-H226 lung,> 75.9 µM
same,TGI,SK-MEL-5 melanoma,27.8 µM
same,TGI,EKVX NSCLC,> 100 µM
same,TGI,NCI-H460 lung,> 100 µM
same,TGI,SR leukemia,> 100 µM
same,TGI,UO-31 renal,> 82.2 µM
same,TGI,OVCAR-8 ovarian,> 31.6 µM
same,TGI,BT-549 breast,> 100 µM
same,TGI,HCT-15 colon,> 100 µM
same,TGI,MDA-N,> 25.4 µM
same,TGI,KM12 colon,> 100 µM
N/C(=N/n1c(=S)[nH]c2ccccc2c1=O)Nn1c(=S)[nH]c2ccccc2c1=O,TGI,MDA-MB-231 breast,> 100 µM
same,TGI,SK-OV-3 ovarian,> 100 µM
same,TGI,PC-3 prostate,> 100 µM
same,TGI,NCI-H23 lung,62.4 µM
same,TGI,UACC-62 melanoma,> 100 µM
same,TGI,MCF7 breast,> 100 µM
same,TGI,OVCAR-3 ovarian,> 100 µM
same,TGI,SF-539 CNS,56.2 µM
same,TGI,T-47D breast,66.3 µM
same,TGI,SNB-75 CNS,> 100 µM
same,TGI,CCRF-CEM leukemia,48.2 µM
same,TGI,HCC-2998 colon,> 100 µM
same,TGI,K-562 leukemia,83.6 µM
same,TGI,SK-MEL-28 melanoma,72.6 µM
same,TGI,HOP-62 NSCLC,93.1 µM
same,TGI,TK-10 renal,> 100 µM
same,TGI,DU-145 prostate,> 100 µM
same,TGI,A498 renal,> 100 µM
same,TGI,OVCAR-5 ovarian,> 100 µM
same,TGI,RPMI-8226 leukemia,57.5 µM
same,TGI,CAKI-1 renal,26.3 µM
same,TGI,UACC-257 melanoma,> 100 µM
same,TGI,U251 CNS,72.3 µM
same,TGI,SNB-19 CNS,> 100 µM
same,TGI,MALME-3M melanoma,45.6 µM
same,TGI,NCI/ADR-RES ovarian,> 100 µM
same,TGI,ACHN renal,> 100 µM
same,TGI,MDA-MB-435,> 100 µM
same,TGI,786-0 renal,34.2 µM
same,TGI,SF-268 CNS,56.8 µM
same,TGI,COLO 205 colon,77.6 µM
same,TGI,A549 NSCLC,> 100 µM
same,TGI,SW-620 colon,38.6 µM
same,TGI,OVCAR-4 ovarian,> 100 µM
same,TGI,HCT-116 colon,30.4 µM
same,TGI,SF-295 CNS,> 100 µM
same,TGI,NCI-H522 lung,30 µM
same,TGI,IGROV1 ovarian,> 100 µM
same,TGI,M14 melanoma,23.8 µM
same,TGI,SK-MEL-2 melanoma,> 100 µM
same,TGI,MOLT-4 leukemia,31 µM
same,TGI,NCI-H226 lung,79 µM
same,TGI,SK-MEL-5 melanoma,> 100 µM
same,TGI,EKVX NSCLC,> 100 µM
same,TGI,NCI-H460 lung,> 100 µM
same,TGI,LOX IMVI melanoma,46 µM
same,TGI,SR leukemia,52 µM
same,TGI,UO-31 renal,27.3 µM
same,TGI,OVCAR-8 ovarian,> 100 µM
same,TGI,BT-549 breast,55.4 µM
same,TGI,RXF 393 renal,> 100 µM
same,TGI,HCT-15 colon,55.5 µM
same,TGI,MDA-N,85.4 µM
same,TGI,KM12 colon,> 100 µM
